From patent publication US20080044479A1, “Antimicrobial sanitizing formulations with skin protection properties” (priority 2006, published 2008)

How the values were obtained:
[1] = tested on: gram-positive and gram-negative bacteria, plus fungi and yeasts; details: see list in U.S. Pat. Nos. 6,187,327 and 6,517,854; cited from earlier work
[2] = tested on: bacteria on skin surfaces; assay: Persistence of bacterial reduction on skin surfaces; assay type: in vivo
Text: It has been discovered that incorporation of at least one of the aforementioned antimicrobial agents in a formulation comprised of a Surfactant Phase, and a Wax Phase result in a product which is particularly effective in preventing cross-contamination of pathogenic microorganisms in the workplace. […] It is applicable to any area of intact skin, and will kill pathogenic bacteria on contact and remain effective for extended periods of time. The mechanism of microbicidal action of these antibacterial agents is thought to be due to the disruption of intermolecular actions of the microbes.

Oc1cc(Cl)ccc1Oc1ccc(Cl)cc1Cl [TRICLOSAN, 2,4,4′-trichloro-2′-hydroxydiphenyl ether]
efficacy against microorganisms [1]: demonstrated efficacy | period for which the incidence of bacteria on skin surfaces is significantly reduced [2]: 3 to 4 h
